# Earlier results in patent publication US8222270B2 (Medicis Pharmaceutical Corporation, priority 2008, dated 2012).
# Test system: actinic keratoses
# Details: cited from earlier work
smiles,measurement,setting,value
"O=c1[nH]cc(F)c(=O)[nH]1 [Formulation 5-FU, 5-fluorouracil]","Sustained clearance of the total treatment field, patients",12-month follow-up,33%
same,Sustained clearance rate of initially cleared individual lesions,12-month follow-up,54%
same,Histological clearance rate,in vivo,67%
same,"Initial clinical clearance, patients",in vivo,96%
